Assay results as given in the NIST ThermoML archive (doi:10.1021/je2009413).

Experiments:
[1] = mean ionic activity coefficient (dimensionless); mn = molality of the nth substance listed, in mol/kg; settings: 298.15 K, Liquid, Isopiestic method
[2] = osmotic coefficient (dimensionless); mn = molality of the nth substance listed, in mol/kg; settings: 298.15 K, Liquid, isopiestic method

CC[N+](CC)(CC)C(C)(C)C [N,N,N-triethyl-2-methyl-2-propanaminium] + O
Settings | mean ionic activity coefficient, [1] | osmotic coefficient, [2]
m1 = 0.0342 | 0.7642 | 0.899
m1 = 0.0403 | 0.7444 | 0.891
m1 = 0.0449 | 0.7306 | 0.88
m1 = 0.0576 | 0.6966 | 0.862
m1 = 0.0639 | 0.6816 | 0.853
m1 = 0.0679 | 0.6725 | 0.847
m1 = 0.0754 | 0.6564 | 0.841
m1 = 0.088 | 0.6318 | 0.832
m1 = 0.0953 | 0.6187 | 0.82
m1 = 0.0994 | 0.6116 | 0.824
m1 = 0.1082 | 0.5972 | 0.808
m1 = 0.1645 | 0.5222 | 0.771
m1 = 0.1658 | 0.5208 | 0.771
m1 = 0.195 | 0.4905 | 0.75
m1 = 0.2257 | 0.4629 | 0.731
m1 = 0.2308 | 0.4586 | 0.723
m1 = 0.271 | 0.4282 | 0.706
m1 = 0.3095 | 0.4031 | 0.678
m1 = 0.3407 | 0.3851 | 0.671
m1 = 0.3517 | 0.3792 | 0.668
m1 = 0.383 | 0.3635 | 0.651
m1 = 0.4265 | 0.3439 | 0.634
m1 = 0.4648 | 0.3286 | 0.62
m1 = 0.5151 | 0.3106 | 0.604
m1 = 0.553 | 0.2985 | 0.592
m1 = 0.5917 | 0.2871 | 0.584
m1 = 0.61 | 0.2821 | 0.577
m1 = 0.7078 | 0.2583 | 0.554
m1 = 0.7607 | 0.2473 | 0.541
m1 = 0.8399 | 0.2327 | 0.524
m1 = 0.8805 | 0.2259 | 0.52
m1 = 0.9759 | 0.2118 | 0.509
m1 = 1.08 | 0.1986 | 0.49
m1 = 1.162 | 0.1896 | 0.487
m1 = 1.272 | 0.1791 | 0.473
m1 = 1.391 | 0.1693 | 0.459
m1 = 1.56 | 0.1579 | 0.452
m1 = 1.693 | 0.1504 | 0.455
m1 = 1.771 | 0.1466 | 0.449
m1 = 1.786 | 0.1459 | 0.454
m1 = 1.83 | 0.144 | 0.45
m1 = 1.924 | 0.1401 | 0.453
m1 = 1.99 | 0.1377 | 0.451
m1 = 2.231 | 0.1303 | 0.465

CCCC[N+](CC)(CCCC)CCCC.[I-] [N,N-dibutyl-N-ethyl-1-butanaminium iodide] + O
Settings | mean ionic activity coefficient, [1] | osmotic coefficient, [2]
m1 = 0.0378 | 0.6891 | 0.814
m1 = 0.0449 | 0.6605 | 0.799
m1 = 0.0501 | 0.6414 | 0.789
m1 = 0.0653 | 0.5922 | 0.761
m1 = 0.0727 | 0.5712 | 0.749
m1 = 0.0776 | 0.5582 | 0.741
m1 = 0.0868 | 0.5355 | 0.731
m1 = 0.1035 | 0.499 | 0.707
m1 = 0.1121 | 0.4824 | 0.698
m1 = 0.1191 | 0.4695 | 0.688
m1 = 0.1288 | 0.4528 | 0.679
m1 = 0.2082 | 0.3515 | 0.614
m1 = 0.2083 | 0.3515 | 0.609
m1 = 0.2503 | 0.3142 | 0.584
m1 = 0.292 | 0.2842 | 0.565
m1 = 0.3027 | 0.2774 | 0.551
m1 = 0.3652 | 0.2431 | 0.524
m1 = 0.4254 | 0.217 | 0.493
m1 = 0.4783 | 0.1981 | 0.478
m1 = 0.498 | 0.1919 | 0.471
m1 = 0.547 | 0.1778 | 0.456
m1 = 0.6197 | 0.1601 | 0.436
m1 = 0.6878 | 0.1461 | 0.419
m1 = 0.7684 | 0.1322 | 0.405
m1 = 0.8453 | 0.1209 | 0.388
m1 = 0.908 | 0.1127 | 0.381
m1 = 0.9478 | 0.108 | 0.371
m1 = 1.128 | 0.09 | 0.347
m1 = 1.231 | 0.0816 | 0.335
m1 = 1.337 | 0.0739 | 0.33
m1 = 1.405 | 0.0695 | 0.326
m1 = 1.548 | 0.0611 | 0.321
m1 = 1.652 | 0.0557 | 0.321
m1 = 1.751 | 0.051 | 0.323
m1 = 1.825 | 0.0478 | 0.33
m1 = 1.91 | 0.0443 | 0.334
m1 = 2.042 | 0.0393 | 0.345
m1 = 2.173 | 0.0349 | 0.354
m1 = 2.216 | 0.0335 | 0.359
m1 = 2.239 | 0.0328 | 0.362
m1 = 2.276 | 0.0317 | 0.362
m1 = 2.339 | 0.0299 | 0.372
m1 = 2.38 | 0.0288 | 0.377
m1 = 2.583 | 0.0236 | 0.402

CC[N+](CC)(CC)CC(C)C.[I-] [N,N,N-triethyl-2-methyl-1-propanaminium iodide] + O
Settings | mean ionic activity coefficient, [1] | osmotic coefficient, [2]
m1 = 0.0366 | 0.7118 | 0.841
m1 = 0.0433 | 0.6866 | 0.828
m1 = 0.0483 | 0.6687 | 0.819
m1 = 0.0624 | 0.6257 | 0.795
m1 = 0.0695 | 0.6067 | 0.784
m1 = 0.0739 | 0.5963 | 0.778
m1 = 0.0824 | 0.5764 | 0.769
m1 = 0.0975 | 0.5439 | 0.751
m1 = 0.1055 | 0.5296 | 0.741
m1 = 0.1113 | 0.5191 | 0.736
m1 = 0.12 | 0.5042 | 0.729
m1 = 0.1872 | 0.4149 | 0.678
m1 = 0.1889 | 0.4131 | 0.677
m1 = 0.2234 | 0.3799 | 0.655
m1 = 0.2618 | 0.3493 | 0.63
m1 = 0.265 | 0.347 | 0.63
m1 = 0.3183 | 0.3131 | 0.601
m1 = 0.3626 | 0.2901 | 0.579
m1 = 0.4063 | 0.2708 | 0.563
m1 = 0.4229 | 0.2643 | 0.555
m1 = 0.4602 | 0.2508 | 0.541
m1 = 0.5128 | 0.2343 | 0.527
m1 = 0.5607 | 0.2214 | 0.514
m1 = 0.6289 | 0.2056 | 0.495
m1 = 0.6797 | 0.1956 | 0.482
m1 = 0.737 | 0.1857 | 0.469
m1 = 0.749 | 0.1837 | 0.47
m1 = 0.8695 | 0.1669 | 0.451
m1 = 0.9418 | 0.1587 | 0.437
m1 = 1.034 | 0.1496 | 0.426
m1 = 1.1 | 0.144 | 0.416
m1 = 1.232 | 0.1343 | 0.404
m1 = 1.352 | 0.1271 | 0.392
m1 = 1.465 | 0.1213 | 0.386
m1 = 1.595 | 0.1156 | 0.377
m1 = 1.703 | 0.1115 | 0.375
m1 = 1.891 | 0.1055 | 0.373
m1 = 2.044 | 0.1013 | 0.377
m1 = 2.096 | 0.0994 | 0.379
m1 = 2.142 | 0.0984 | 0.378
m1 = 2.163 | 0.0981 | 0.381
m1 = 2.254 | 0.0955 | 0.387
m1 = 2.308 | 0.0941 | 0.389
m1 = 2.528 | 0.0917 | 0.41
